Laboratory results taken from article PMC3833293 (ACS Chemical Biology, 2013).

Tests used:
[1] = test system: wild-type and drug-resistant HIV clones; experiment: Monogram drug susceptibility assays, profile across viral panel; assay type: cell-based, HIV-1; conditions: weakest EC50 to a variant divided by that to wild-type
wild-type HIV-1 protease = wild-type HIV-1 protease (Human immunodeficiency virus type 1 group M subtype B, UniProt P03369); experiment: FRET enzyme inhibition assay, wild-type protease; assay type: biochemical
[2] = test system: wild-type HIV-1 protease and drug-resistant variants M1, M2, M3, M4; experiment: FRET enzyme inhibition, profile across wild type and mutant panel; assay type: biochemical; conditions: weakest Ki to a drug-resistant variant divided by Ki to wild type
[3] = target: HIV-1 protease M2 (D30N, N88D) (Human immunodeficiency virus type 1 group M subtype B, UniProt P03369, D520N/N578D); experiment: FRET enzyme inhibition assay, M2 variant; assay type: biochemical
[4] = target: HIV-1 protease M4 (I50V, A71V) (Human immunodeficiency virus type 1 group M subtype B, UniProt P03369, A561V/I540V); experiment: FRET enzyme inhibition assay, M4 variant; assay type: biochemical

Compound: CC[C@H](C)[C@H](NC(C)=O)C(=O)N[C@@H](Cc1ccccc1)[C@H](O)CN(CC(C)C)S(=O)(=O)c1ccc(OC)cc1 [AF-68]
- worst-fold activity loss [1]: 4.4 fold

Compound: CC[C@H](C)CN(C[C@@H](O)[C@H](Cc1ccccc1)NC(=O)c1cccc(O)c1)S(=O)(=O)c1ccc(-c2ccno2)s1 [AF-71]
- loss in affinity to wild-type protease compared to parent compound (wild-type HIV-1 protease; AF-71 vs AD-93, AF-80 vs KB-83): 72 fold

Compound: O=C(N[C@@H](Cc1ccccc1)[C@H](O)CN(CC1CCCCC1)S(=O)(=O)c1ccc2ncsc2c1)c1cccc(O)c1 [AF-72]
- worst-fold activity loss [1]: 2.6 fold

Compound: COc1ccc(S(=O)(=O)N(CC2CCCCC2)C[C@@H](O)[C@H](Cc2ccccc2)NC(=O)c2cccc(O)c2)cc1 [AF-77]
- worst-fold activity loss [1]: 2.2 fold

Compound: COc1ccc(S(=O)(=O)N(CCCc2ccccc2)C[C@@H](O)[C@H](Cc2ccccc2)NC(=O)c2cccc(O)c2)cc1 [AF-78]
- worst-fold affinity loss [2]: 98 fold

Compound: CC[C@H](C)CN(C[C@@H](O)[C@H](Cc1ccccc1)NC(=O)[C@@H](NC(C)=O)[C@@H](C)CC)S(=O)(=O)c1ccc2ncsc2c1 [AG-23]
- Ki [3]: 0.028 ± 0.025 nM
- worst-fold activity loss [1]: 3.2 fold
- Ki (wild-type HIV-1 protease; Ki, wild type, mean ± standard deviation): 0.021 ± 0.009 nM
- Ki [4]: 0.092 ± 0.025 nM
